From paper PMC9977398, “Next-generation membrane-active glycopeptide antibiotics that also inhibit bacterial cell division” (Chemical Science, 2023)

Experiments:
[1] = In-vivo toxicity in mice (LD50); set-up: species or system Balb/c female mice; conditions: for LD50: single injection, 14 days
Experimental: The in vitro activity, low toxicity, and stability in plasma and liver homogenate, supported the potential of VanQAmC10 as a candidate for the treatment of bacterial infections. The efficacy of VanQAmC10 (8) against MRSA was tested in a neutropenic mouse thigh infection model. Infection was established by injecting them with 5 × 10^5 CFU of MRSA in the thigh. 1 h and 13 h post-infection, mice were treated with 12 mg kg^−1 of vancomycin and VanQAmC10 administered intraperitoneally (Fig. 6B). The mice were sacrificed 24 h post-infection. […] In the untreated group, the bacterial load increased to 8 log CFU g^−1. […] However, treatment with VanQAmC10 reduced the bacterial load to 3.3 log CFU g^−1, which is a 1.5 log CFU g^−1 lower bacterial load than observed against vancomycin.
Table S1: Activity of VanQAmC10 in mouse plasma and liver homogenate against MRSA […]
MIC of VanQAmC10 post incubation in (μM)
Bacteria Plasma Liver homogenate Media […]
when administered subcutaneously. […]
of VanQAmC10 as compared to the previously developed molecule, VanQC14.3 This reduced toxicity of VanQAmC10 can be attributed to the presence of the amide spacer between the cationic moiety and the alkyl chain as mentioned in the previous section.
Table S2 In-vivo toxicity (LD50 values) of VanQAmC10 by various modes of administration Mode of administration LD 50 (mg/kg)
All reagents were purchased from Sigma-Aldrich and Spectrochem and used without further purification. All the solvents of reagent grade were purchased from Spectrochem and SD Fine.
Chloroform for column chromatography was purchased from SD Fine chemicals and distilled prior to use. HPLC grade acetonitrile was purchased from Spectrochem. Analytical thin layer chromatography (TLC) was performed on E. Merck TLC plates pre-coated with silica gel 60 F254 (250 μm thickness). Vancomycin derivative was purified by reverse phase HPLC using 0.1 % trifluoroacetic acid (TFA) in water/acetonitrile (0-100 %) as mobile phase. HPLC […]
The doses for administration, were given modified OECD guidelines. LD50 was determined using Spearman-Karber method. […]

[2] = system: VRE 51575 (vancomycin-resistant E. faecalis, VanB phenotype, ATCC 51575); set-up: method as in PMID 32195571; conditions: previously reported; cited from earlier work
RAW 264.7 cells = system: RAW 264.7 cells; set-up: method as in PMID 32195571; conditions: cited from earlier work

CCCCCCCCCCNC(=O)C[N+](C)(C)CCCNC(=O)C1NC(=O)C2NC(=O)C(NC(=O)C3NC(=O)C(CC(N)=O)NC(=O)C(NC(=O)C(CC(C)C)NC)C(O)c4ccc(c(Cl)c4)Oc4cc3cc(c4OC3OC(CO)C(O)C(O)C3OC3CC(C)(N)C(O)C(C)O3)Oc3ccc(cc3Cl)C2O)c2ccc(O)c(c2)-c2c(O)cc(O)cc21 (centres unmarked) [VanQAmC10 (8)]
dose well tolerated, all mice survived ([1]; intraperitoneal): 130 mg/kg | LD50 ([1]; intraperitoneal): greater than 130 mg/kg | LD50 ([1]; subcutaneous): greater than 160 mg kg^−1 | Minimum inhibitory concentration, VRE 51575 [2]: 4 µM | concentration up to which non-toxic (RAW 264.7 cells): 40 µM
